Experiments:
PDEδ [1] = biological target: T1, PDEδ (Homo sapiens, UniProt O43924); experiment: Fluorescence polarisation (FP)-based binding assay; details: 0.5 µM PD titrated with PDEδ, PBS pH 7.2; mean ± SD of three independent experiments; read-out: Kd value
T1 construct: made in house; host or cells: E. coli BL21(DE3)
Method: To evaluate the binding affinities of PDs to PDEδ, we also carried out a fluorescence polarisation (FP)-based binding assay after incubation of PDs with PDEδ. […] In the presence of 0.5 µM PD compounds, the polarisation value (mP value) increased following treatment with purified PDEδ in a dose-dependent manner until treatment with excess PDEδ induced saturation of binding. Among the tested compounds, 8 compounds were selected for further evaluation and SAR analysis. The binding curves for the selected 8 compounds are shown with their Kd values in Supplemental Figure S3.
(§1) Figure 3. Binding affinities of PDs measured by fluorescence polarisation. (A) Representative binding curve of PDs (PD3) titrated with PDEδ. The FP value was measured in PBS buffer (pH 7.2) containing 8 concentrations (0, 0.5, 1, 2, 4, 8, 16 and 32 μM) of PDEδ mixed with 0.5 μM PDs. Ex: 440 nm, Em: 526 nm; (B) Kd value and half-life of each compound; (C, D) Kinetic trace of PD3 and PD7 in the competition assay. PD3 was shown as a compound with the longest retention time (slow dissociation), whereas PD7 was shown as a compound with the shortest retention time (fast dissociation). The half-life was obtained by a competition binding assay using excess deltarasin. The optimal concentration of PDEδ for the competition assay was determined using the Kd value and PD concentration (0.5 μM) for making more than 68% of the binding complex. Ex: 430 nm, Em: 520 nm. TEXT PRINTED IN THE PICTURE: (A) PD3: Best-fit values Bmax: 261.7; Best-fit values Kd: 0.4991; Std. Error Bmax: 17.98; Std. […] Error Bmax 17.98 (last digit 8 or 6) and Std. Error Kd 0.1956 (5 and 6 not certain) / Panels C and D: k and half-life are printed without a label of their own; assigned to PD3 and PD7 from the panel legends (PDEδ+PD3+Del, PDEδ+PD7+Del)
PDEδ was diluted to make a series of two-fold dilutions with a starting concentration of 32 µM. The diluted solution was mixed with PBS buffer [137 mM NaCl, 2.7 mM KCl, 10 mM Na2HPO4, 2 mM KH2PO4 (pH 7.2)] and then the mixture was loaded on a 96 well black plate (SPL life Science, Gyeonggi-do, Republic of Korea). Compounds were transferred to the wells of assay plate and the final concentration of compounds was fixed to 0.5 µM. After the addition of the compound, the assay plates were incubated for 2 h at 4 °C. FP values were detected by SpectraMax M5 microplate reader (Molecular Devices, San Jose, CA) at the maximum absorption and emission wavelengths of PD compounds in assay buffer. Kd values were determined by previously reported method.

PDEδ [2] = biological target: T1, PDEδ; experiment: FP-based competition binding assay using excess deltarasin
Method: as §1
To confirm that the PD compound occupies the same farnesylation binding site as deltarasin in PDEδ and to exclude the possibility that the FP signal resulted from non-specific hydrophobic interactions, we carried out a FP-based competition assay. PDs (0.5 µM) were incubated with the purified PDEδ protein for 2 h to ensure complete binding between the compound and the protein. Then, deltarasin was added to replace the PD compound in the prenyl binding pocket of PDEδ, which decreased the FP due to the free rotation of the released PD compound. As shown in Figure 3(B), the reverse correlation between Kd values and half-lives was observed (Figure 3(B) and Table 1). […] The rate constants and half-lives were measured only when the increased concentration of deltarasin produced concentration-independent kinetic parameters, which reflects complete displacement of the binding site with the deltarasin. The kinetic trace was fit to a single exponential decay to generate the dissociation rate constant and half-life. Given that the Kd value is a ratio of koff/kon in a simple bimolecular binding model, the measured half-life and Kd are not always matched due to the contribution from the association rate constant. Figure 3(C) (PD3) and 3 D (PD7) show a representative kinetic trace obtained in the competition assay.
Deltarasin, a well-known PDEδ inhibitor, was purchased from Chemietek (Indianapolis, IN) for the competition assay. Assay buffer and the plate were the same as used in fluorescence polarisation assay. The optimal concentration of PDEδ was determined based on the Kd values and ligand concentration (0.5 µM) to ensure the formation of ligand-protein complex. The mixture of PDEδ and compounds were incubated for 2 h at 4 °C. After adding deltarasin to the mixture, FP was immediately recorded by SpectraMax M5 microplate reader (Molecular Devices, San Jose, CA) with excitation at 430 nm and emission at 520 nm. In SpectraMax M5 microplate reader, single excitation and emission wavelengths need to be used for testing all compounds. Therefore, Ex 430/Em 520 was used for competition binding assay. The selected ex/em wavelengths have only a difference of less than 10 nm from the maximum wavelengths, and there was no critical issue for conducting assay. The kinetic trace was fit to a single exponential decay to generate dissociation rate constant and half-life.

PANC-1 cells = experiment: Immunofluorescence staining of RAS localisation; type: cell-based, human; details: 18 h, anti-pan RAS antibody, PD3 10 µM, deltarasin 2, 5, 10 µM
From the text: Finally, we investigated whether PD3 changes KRAS localisation by inhibiting the interaction of KRAS with PDEδ in human pancreatic cancer cells. PDEδ binds the farnesylated RAS proteins and stabilises them[19]. Therefore, PDEδ activity leads to the accumulation of RAS at the plasma membrane (PM); conversely, downmodulation of PDEδ enhances RAS diffusion in the cytoplasm. To confirm the effect of PD3 on the relocalization of RAS, we carried out immunofluorescence staining of PANC-1 cells with an anti-RAS antibody (Figure 6). […] Conversely, in the DMSO-treated control group, RAS was mainly localised in the PM of PANC-1 cells. […] It is supposed that PD3 can induce changes in RAS localisation from the plasma membrane by interrupting the protein–protein interaction of KRAS-PDEδ.
Figure 6. Immunofluorescence of PANC-1 cells with an anti-Pan-RAS antibody (red). DMSO was used as a negative control, and deltarasin was used as a positive control. Ex: 633 nm, Em: ≥638 nm. The scale bar represents 20 µm.
PANC-1 cells were seeded with cover slip in a 6-well cell culture plate (SPL life Science, Gyeonggi-do, Republic of Korea) and incubated for 24 h under 37 °C and 5% CO2 prior to the experiment. […] The fluorescence images were detected by confocal microscope (TCS-SP8 confocal laser scanning microscope, Leica, Germany). Fluorescence signal was obtained by excitation at 633 nm and emission at ≥638 nm.

PDEδ [3] = biological target: T1, PDEδ; experiment: Fluorescence measurement after incubation with recombinant PDEδ; type: binding; details: 2 µM PD + 2 µM PDEδ, 20 mM Tris buffer pH 7.5, Ex 280 nm
Method: With the structural rationale for the binding to PDEδ from the molecular docking studies, we measured the fluorescence responses of the PDs after incubation with recombinant PDEδ proteins to confirm the binding of PDs to PDEδ. We envisioned that the hydrophobic environment of the prenyl binding pocket of PDEδ, as depicted in Figure 1(C), could enhance the fluorescent signal due to the solvatochromic characteristics of IQ scaffold. In addition, tryptophan residues near the binding site of PDEδ and the fluorophore of PDs could act as a fluorescence resonance energy transfer (FRET) pair. […] All recoded spectra of PDs are depicted in Supplemental Figure S1. To compare the binding abilities of PD derivatives to the target protein, same concentration (2 µM) of PD compound was treated and then fluorescence intensity was measured in Spectrofluorometer FP-6500.
The fluorescence changes were measured to determine the interaction between PD compounds and PDEδ protein. The fluorescence spectra were obtained under Tris buffer [20 mM Tris-HCl (pH 7.5), 100 mM NaCl] at 20 °C. The concentration of PDEδ was 2 µM. After the addition of 2 µM PD compound, the mixture was gently inverted 3 times and then incubated for 1 min. The emission spectra were recorded on Spectrofluorometer FP-6500 (JASCO, Tokyo, Japan) at Ex 280 nm. The band width was 3 nm for excitation and 5 nm for emission.

[4] = retention in PDEδ on displacement by excess deltarasin, 0.5 µM PD, mean ± SD of three independent experiments

Row | Kd (PDEδ [1]) | Half-life (PDEδ [2]; [4]) | Half-life (PDEδ [2]; representative kinetic trace, single exponential decay) | koff (PDEδ [2]; representative kinetic trace, single exponential decay, read-out: dissociation rate constant k (converted)) | Compound | RAS localisation at the plasma membrane (PM) (PANC-1 cells) | Fluorescence response upon incubation with PDEδ (PDEδ [3])
1 | 284 ± 140 nM | 36 ± 2 min |  |  | Brc1ccc(-c2nc3ccccc3c3cc4ccccn4c23)cc1 [PD1] |  | 
2 |  |  |  |  | c1ccc(Cn2c(-c3ccc(OC[C@H](C4CCNCC4)n4c(-c5ccccc5)nc5ccccc54)cc3)nc3ccccc32)cc1 [deltarasin, reference compound] | reduced the amount of RAS at the PM | 
3 | 720 ± 85 nM | 20 ± 4 min |  |  | COc1ccc(-c2nc3ccccc3c3cc4ccccn4c23)cc1 [PD5] |  | 
4 | 1280 ± 261 nM | 19 ± 3 min |  |  | COc1ccc(-c2nc3ccccc3c3cc4ccccn4c23)cc1OC [PD6] |  | exceeded the maximum detection limit of Spectrofluorometer
5 | 425 ± 75 nM | 26 ± 3 min |  |  | c1csc(-c2nc3ccccc3c3cc4ccccn4c23)c1 [PD25] |  | 
6 | 643 ± 128 nM | 35 ± 7 min |  |  | c1ccc2cc(-c3nc4ccccc4c4cc5ccccn5c34)ccc2c1 [PD8] |  | 
7 | 505 ± 33 nM | 31 ± 9 min |  |  | c1ccc(-c2nc3ccccc3c3cc4ccccn4c23)cc1 [PD4] |  | 
8 | 1540 ± 180 nM | 14 ± 1 min | 13 min | 0.0009 s⁻¹ | c1ccc2c(-c3nc4ccccc4c4cc5ccccn5c34)cccc2c1 [PD7] |  | 
